Tests used:
[1] = Equilibrium solubility in organic solvents; format: physicochemical; conditions: RT; for Remaining Solid: XRPD; for solubility at 24 h: organic solvent or mixture, thermodynamic from solid
Description: Approximately 10 mg of Form B was weighed into a 1-ml glass vial followed by addition of 0.5 ml relevant media. Each sample was continuously stirred using a magnetic stir bar at 25° C. for 24 h. The suspension was then filtered using a nylon membrane with a pore diameter of 0.22 μm. The filtrates were diluted for HPLC analysis and final pH was measured. The solid residue of each sample was collected for XRPD analysis. The solubility of Form B was also determined in commonly used organic solvents (diluents or HPLC mobile phase). The solubility data summarized in Table 10 indicates Form B is quite soluble in MeOH, EtOH, and IPA.

[2] = Solution stability in pH buffers; format: physicochemical
Description: 0.1 mg/ml solutions of Form B were prepared in five buffers, including 0.01N HCl (pH 2), 50 mM sodium citrate (pH 4), 50 mM sodium citrate (pH 6), 50 mM sodium phosphate (pH 8), and 50 mM sodium carbonate (pH 10). Methanol was added as a co-solvent to dissolve Form B in buffers (i.e., 10% (v/v) in pH 2, 4, and 6 buffers, 20% (v/v) in pH 8 buffer, and 30% (v/v) in pH 10 buffer). Each buffer solution containing Form B was stored at 3 different temperatures: 25° C., 37° C., and 50° C. Aliquots were taken for HPLC analysis after 1 day and 7 days. pH values were also measured before and after the stability experiments.
Preparation of pH Buffers • pH 2: 0.01N HCl solution. Dilute 1 ml of 1 N HCl with H2O up to a total volume of 100 ml. Measure the pH and precisely adjust to pH=2.00 using a few microliters of 1N HCl or 1N NaOH. • pH 4: 50 mM Na citrate buffer. Prepare a 50 mM citric acid solution by diluting 10 ml of 1N citric acid with H2O up to a total volume of 200 ml. Slowly add solid NaOH under stirring to increase the pH to 3.8-4.0 and use a few microliters of 1N NaOH for final adjustment to pH 4.00. • pH 6: 50 mM Na citrate buffer. Use the same procedure as the pH 4 buffer and adjust to pH=6.00 • pH 8: 50 mM Na phosphate buffer. Prepare a 50 mM NaH2PO4 solution by dissolving 6.00 g NaH2PO4 in 1 L of H2O and a 50 mM Na2HPO4 solution by dissolving 7.10 g in 1 L of H2O. Mix 10 ml of the NaH2PO4 solution with 140 ml of the Na2HPO4 solution in a beaker. Adjust to pH 8.00 by addition of small amounts of 50 mM NaH2PO4 or Na2HPO4 solution. • pH 10: 50 mM Na carbonate buffer. Prepare a 50 mM carbonate solution by dissolving 840 mg of sodium bicarbonate (NaHCO3) in about 180 ml of H2O. Slowly adjust the pH to 10.0±0.1 by addition of 1N NaOH. Add water to reach the total volume of 200 ml and adjust to pH 10.00 with 1N NaOH.

[3] = pH 2, 25° C., 24 h, measured pH 2.1
[4] = pH 2, 25° C., 7 days, measured pH 2.1
[5] = pH 2, 37° C., 24 h, measured pH 2.1
[6] = pH 2, 37° C., 7 days, measured pH 2.1
[7] = pH 2, 50° C., 24 h, measured pH 2.1
[8] = pH 2, 50° C., 7 days, measured pH 2.1
[9] = pH 4, 25° C., 24 h, measured pH 4.2
[10] = pH 4, 25° C., 7 days, measured pH 4.2
[11] = pH 4, 37° C., 24 h, measured pH 4.1
[12] = pH 4, 37° C., 7 days, measured pH 4.1
[13] = pH 4, 50° C., 24 h, measured pH 4.1
[14] = pH 4, 50° C., 7 days, measured pH 4.2
[15] = pH 6, 25° C., 24 h, measured pH 6.2
[16] = pH 6, 25° C., 7 days, measured pH 6.2
[17] = pH 6, 37° C., 24 h, measured pH 6.2
[18] = pH 6, 37° C., 7 days, measured pH 6.3
[19] = pH 6, 50° C., 24 h, measured pH 6.2
[20] = pH 6, 50° C., 7 days, measured pH 6.2
[21] = pH 8, 25° C., 24 h, measured pH 8.2
[22] = pH 8, 25° C., 7 days, measured pH 8.2
[23] = pH 8, 37° C., 24 h, measured pH 8.2
[24] = pH 8, 37° C., 7 days, measured pH 8.3
[25] = pH 8, 50° C., 24 h, measured pH 8.3
[26] = pH 8, 50° C., 7 days, measured pH 8.3
[27] = pH 10, 25° C., 24 h, measured pH 10.9
[28] = pH 10, 25° C., 7 days, measured pH 10.9
[29] = pH 10, 37° C., 24 h, measured pH 10.9
[30] = pH 10, 37° C., 7 days, measured pH 10.9
[31] = pH 10, 50° C., 24 h, measured pH 11.0
[32] = pH 10, 50° C., 7 days, measured pH 10.9

CC(C)N(C[C@H]1O[C@@H](n2cnc3c(N)ncnc32)[C@H](O)[C@@H]1O)[C@H]1C[C@@H](CCc2nc3cc(C(C)(C)C)ccc3[nH]2)C1 [Form B, (2R,3R,4S,5R)-2-(6-amino-9H-purin-9-yl)-5-((((1r,3S)-3-(2-(5-(tert-butyl)-1H-benzo[d]imidazol-2-yl)ethyl)cyclobutyl)(isopropyl)amino)methyl)tetrahydrofuran-3,4-diol trihydrate]
Remaining Solid ([1]; Acetone): Form B
Remaining Solid ([1]; Acetonitrile): Form B
solubility at 24 h ([1]; Ethanol): > 87 mg/mL
solubility at 24 h ([1]; Isopropanol): > 129 mg/mL
solubility at 24 h ([1]; Methanol): > 200 mg/mL
% area (100% − TRS%) [2, 3]: 98.7%
% claim (Cs/Ci × 100%) [2, 3]: 97.1%
% area (100% − TRS%) [2, 4]: 98.5%
% claim (Cs/Ci × 100%) [2, 4]: 99.1%
% area (100% − TRS%) [2, 5]: 98.7%
% claim (Cs/Ci × 100%) [2, 5]: 96.8%
% area (100% − TRS%) [2, 6]: 98.4%
% claim (Cs/Ci × 100%) [2, 6]: 97.5%
% area (100% − TRS%) [2, 7]: 98.3%
% claim (Cs/Ci × 100%) [2, 7]: 97.0%
% area (100% − TRS%) [2, 8]: 98.4%
% claim (Cs/Ci × 100%) [2, 8]: 97.0%
degradation in solution ([2]; pH 2 to 10 buffers, 25° C., 37° C., 50° C., up to 7 days): less than 5%
% area (100% − TRS%) [2, 9]: 99.4%
% claim (Cs/Ci × 100%) [2, 9]: 97.4%
% area (100% − TRS%) [2, 10]: 99.6%
% claim (Cs/Ci × 100%) [2, 10]: 100.2%
% area (100% − TRS%) [2, 11]: 99.4%
% claim (Cs/Ci × 100%) [2, 11]: 97.6%
% area (100% − TRS%) [2, 12]: 99.5%
% claim (Cs/Ci × 100%) [2, 12]: 99.0%
% area (100% − TRS%) [2, 13]: 99.4%
% claim (Cs/Ci × 100%) [2, 13]: 97.6%
% area (100% − TRS%) [2, 14]: 99.5%
% claim (Cs/Ci × 100%) [2, 14]: 98.7%
% area (100% − TRS%) [2, 15]: 99.2%
% claim (Cs/Ci × 100%) [2, 15]: 98.0%
% area (100% − TRS%) [2, 16]: 99.5%
% claim (Cs/Ci × 100%) [2, 16]: 100.0%
% area (100% − TRS%) [2, 17]: 99.3%
% claim (Cs/Ci × 100%) [2, 17]: 97.9%
% area (100% − TRS%) [2, 18]: 99.4%
% claim (Cs/Ci × 100%) [2, 18]: 99.0%
% area (100% − TRS%) [2, 19]: 99.3%
% claim (Cs/Ci × 100%) [2, 19]: 98.1%
% area (100% − TRS%) [2, 20]: 99.5%
% claim (Cs/Ci × 100%) [2, 20]: 98.9%
% area (100% − TRS%) [2, 21]: 99.2%
% claim (Cs/Ci × 100%) [2, 21]: 98.0%
% area (100% − TRS%) [2, 22]: 99.5%
% claim (Cs/Ci × 100%) [2, 22]: 99.8%
% area (100% − TRS%) [2, 23]: 99.5%
% claim (Cs/Ci × 100%) [2, 23]: 98.4%
% area (100% − TRS%) [2, 24]: 99.5%
% claim (Cs/Ci × 100%) [2, 24]: 99.3%
% area (100% − TRS%) [2, 25]: 99.5%
% claim (Cs/Ci × 100%) [2, 25]: 98.0%
% area (100% − TRS%) [2, 26]: 99.5%
% claim (Cs/Ci × 100%) [2, 26]: 98.8%
% area (100% − TRS%) [2, 27]: 99.4%
% claim (Cs/Ci × 100%) [2, 27]: 98.0%
% area (100% − TRS%) [2, 28]: 99.4%
% claim (Cs/Ci × 100%) [2, 28]: 99.7%
% area (100% − TRS%) [2, 29]: 99.4%
% claim (Cs/Ci × 100%) [2, 29]: 98.2%
% area (100% − TRS%) [2, 30]: 99.4%
% claim (Cs/Ci × 100%) [2, 30]: 99.0%
% area (100% − TRS%) [2, 31]: 99.5%
% claim (Cs/Ci × 100%) [2, 31]: 97.9%
% area (100% − TRS%) [2, 32]: 99.4%
% claim (Cs/Ci × 100%) [2, 32]: 98.9%

— patent US9701707B2, “Methods of synthesizing substituted purine compounds” (Epizyme, Inc., priority 2013, dated 2017)
